Key:
human LTA4 hydrolase = human LTA4 hydrolase (Homo sapiens (Human), UniProt P09960); assay: LTA4H Enzyme assay (peptidase, Arg-AMC cleavage); type: biochemical; details: LTA4H Enzyme 1 nM, Arg-AMC substrate 50 μM, room temperature 1 h, fluorescence
Description: The compounds of the invention are assessed for the ability to interact with human LTA4 hydrolase in an enzymatic assay that measures the ability of the enzyme to cleave the peptide bond of arginyl-aminomethylcoumarin (Arg-AMC). LTA4H Enzyme (1 nM final), Arg-AMC substrate (50 μM final), and compound are combined in a reaction buffer (50 mM Tris-HCl (pH 7.5), 100 mM KCl, 0.5% bovine serum albumin) at room temperature for 1 h. The formation of product is assessed by measuring the fluorescence of aminomethylcoumarin product (excitation wavelength 380 nm/emission wavelength 460 nm).

[1] = test system: synthesis of LTB4 in human whole blood; assay: LTB4 production inhibition assay in human whole blood (HWB); type: cell-based; details: heparinized human whole blood, 15 min at 37° C., Calcimycin 20 μM 30 min, plasma LTB4 by HTRF
Description: The compounds of the invention are additionally tested in a human whole blood (HWB) assay to determine their ability to inhibit the synthesis of LTB4 in a cellular system. Compounds are combined with heparinized human whole blood and incubated for 15 minutes at 37° C. Calcimycin (20 μM final, prepared in phosphate-buffered saline, pH 7.4) is then added and the mixture is incubated for another 30 minutes at 37° C. The samples are centrifuged for 5 min at low speed (1500×g) and the plasma layer is removed. Plasma LTB4 concentrations are then measured using an antibody-based homogenous time-resolved fluorescence method (CisBio, Bedford, Mass.).

Sequence of human LTA4 hydrolase (P09960 whole entry): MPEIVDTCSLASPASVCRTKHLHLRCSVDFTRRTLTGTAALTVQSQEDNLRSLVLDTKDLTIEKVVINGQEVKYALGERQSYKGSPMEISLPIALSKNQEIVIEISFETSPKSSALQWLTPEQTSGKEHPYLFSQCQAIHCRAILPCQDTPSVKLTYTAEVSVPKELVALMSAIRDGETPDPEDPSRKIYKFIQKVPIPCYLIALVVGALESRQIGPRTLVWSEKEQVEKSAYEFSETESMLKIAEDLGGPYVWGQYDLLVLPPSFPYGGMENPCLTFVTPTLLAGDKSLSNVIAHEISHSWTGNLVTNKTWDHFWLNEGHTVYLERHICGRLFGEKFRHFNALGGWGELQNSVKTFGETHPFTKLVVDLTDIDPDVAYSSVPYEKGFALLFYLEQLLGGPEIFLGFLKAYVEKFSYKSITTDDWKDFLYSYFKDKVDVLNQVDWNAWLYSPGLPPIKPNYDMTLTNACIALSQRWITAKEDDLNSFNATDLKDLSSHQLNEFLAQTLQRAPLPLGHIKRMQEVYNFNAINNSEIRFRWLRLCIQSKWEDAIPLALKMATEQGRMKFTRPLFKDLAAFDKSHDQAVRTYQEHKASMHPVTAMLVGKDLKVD

| IC50 (human LTA4 hydrolase) [nM] | IC50 [1] [nM] | SMILES |
| --- | --- | --- |
| 1.3 | 230 | C[C@H](O)C(=O)N1CCN(Cc2ccc3cc(Oc4ncc(-c5ccn[nH]5)cn4)ccc3c2)CC1 [Example 30, (S)-2-Hydroxy-1-(4-{6-[5-(2H-pyrazol-3-yl)-pyrimidin-2-yloxy]-naphthalen-2-ylmethyl}-piperazin-1-yl)-propan-1-one] |
| 1.5 | 270 | CN(C(=O)CO)C1CCN(Cc2ccc3cc(Oc4ncc(-c5ccn[nH]5)cn4)ccc3c2)CC1 [Example 31, 2-Hydroxy-N-methyl-N-(1-{6-[5-(2H-pyrazol-3-yl)-pyrimidin-2-yloxy]-naphthalen-2-ylmethyl}-piperidin-4-yl)-acetamide] |
| 1.1 | 180 | CC(=O)N1CC(CN(C)Cc2ccc3cc(Oc4ncc(-c5ccn[nH]5)cn4)ccc3c2)C1 [Example 32, 1-{3-[(Methyl-{6-[5-(2H-pyrazol-3-yl)-pyrimidin-2-yloxy]-naphthalen-2-ylmethyl}-amino)-methyl]-azetidin-1-yl}-ethanone] |
| 0.92 | 150 | O=C1OCCN1C1CCN(Cc2ccc3cc(Oc4ncc(-c5ccn[nH]5)cn4)ccc3c2)CC1 [Example 33, 3-(1-{6-[5-(2H-Pyrazol-3-yl)-pyrimidin-2-yloxy]-naphthalen-2-ylmethyl}-piperidin-4-yl)-oxazolidin-2-one] |
| 0.81 | 430 | CN(C)C(=O)N1CCN(Cc2ccc3cc(Oc4ncc(-c5ccn[nH]5)cn4)ccc3c2)CC1 [Example 34, 4-{6-[5-(2H-Pyrazol-3-yl)-pyrimidin-2-yloxy]-naphthalen-2-ylmethyl}-piperazine-1-carboxylic acid dimethylamide] |
| 2.7 | 950 | CC(C)(C)C(=O)N1CCN(Cc2ccc3cc(Oc4ncc(-c5ccn[nH]5)cn4)ccc3c2)CC1 [Example 35, 2,2-Dimethyl-1-(4-{6-[5-(2H-pyrazol-3-yl)-pyrimidin-2-yloxy]-naphthalen-2-ylmethyl}-piperazin-1-yl)-propan-1-one] |
| 1.9 | 220 | O=C1CCCN1C1CCN(Cc2ccc3cc(Oc4ncc(-c5ccn[nH]5)cn4)ccc3c2)CC1 [Example 36, 1-(1-{6-[5-(2H-Pyrazol-3-yl)-pyrimidin-2-yloxy]-naphthalen-2-ylmethyl}-piperidin-4-yl)-pyrrolidin-2-one] |
| 0.43 | 120 | CCC(=O)N1CCN(Cc2ccc3cc(Oc4ncc(-c5ccn[nH]5)cn4)ccc3c2)CC1 [Example 37, 1-(4-{6-[5-(2H-Pyrazol-3-yl)-pyrimidin-2-yloxy]-naphthalen-2-ylmethyl}-piperazin-1-yl)-propan-1-one] |
| 1.2 | 180 | CN(C)C(=O)C1CCN(Cc2ccc3cc(Oc4ncc(-c5ccn[nH]5)cn4)ccc3c2)CC1 [Example 38, 1-{6-[5-(2H-Pyrazol-3-yl)-pyrimidin-2-yloxy]-naphthalen-2-ylmethyl}-piperidine-4-carboxylic acid dimethylamide] |
| 2.2 | 320 | CC(C)(O)C(=O)N1CCN(Cc2ccc3cc(Oc4ncc(-c5ccn[nH]5)cn4)ccc3c2)CC1 [Example 39, 2-Hydroxy-2-methyl-1-(4-{6-[5-(2H-pyrazol-3-yl)-pyrimidin-2-yloxy]-naphthalen-2-ylmethyl}-piperazin-1-yl)-propan-1-one] |
| 1.8 | 340 | O=C(C1CC1)N1CCN(Cc2ccc3cc(Oc4ncc(-c5ccn[nH]5)cn4)ccc3c2)CC1 [Example 40, Cyclopropyl-(4-{6-[5-(2H-pyrazol-3-yl)-pyrimidin-2-yloxy]-naphthalen-2-ylmethyl}-piperazin-1-yl)-methanone] |
| 0.97 | 430 | CC(C)C(=O)N1CCN(Cc2ccc3cc(Oc4ncc(-c5ccn[nH]5)cn4)ccc3c2)CC1 [Example 41, 2-Methyl-1-(4-{6-[5-(2H-pyrazol-3-yl)-pyrimidin-2-yloxy]-naphthalen-2-ylmethyl}-piperazin-1-yl)-propan-1-one] |
| 0.92 | 190 | OC1CN(Cc2ccc3cc(Oc4ccc(-c5ccn[nH]5)cn4)ccc3n2)C1 [Example 42, 1-{6-[5-(2H-Pyrazol-3-yl)-pyridin-2-yloxy]-quinolin-2-ylmethyl}-azetidin-3-ol] |
| 2 | 680 | N#CCCNCc1ccc2cc(Oc3ccc(-c4ccn[nH]4)cn3)ccc2n1 [Example 43, 3-({6-[5-(2H-Pyrazol-3-yl)-pyridin-2-yloxy]-quinolin-2-ylmethyl}-amino)-propionitrile] |
| 2.7 | 870 | CC[C@H](CC#N)NCc1ccc2cc(Oc3ccc(-c4ccn[nH]4)cn3)ccc2n1 [Example 44, (R)-3-({6-[5-(2H-Pyrazol-3-yl)-pyridin-2-yloxy]-quinolin-2-ylmethyl}-amino)-pentanenitrile] |
| 2.4 | 310 | O[C@@H]1CCN(Cc2ccc3cc(Oc4ncc(-c5ccn[nH]5)cn4)ccc3c2)C1 [Example 45, (R)-1-{6-[5-(2H-Pyrazol-3-yl)-pyrimidin-2-yloxy]-naphthalen-2-ylmethyl}-pyrrolidin-3-ol] |
| 2.5 | 230 | O[C@H]1CCN(Cc2ccc3cc(Oc4ncc(-c5ccn[nH]5)cn4)ccc3c2)C1 [Example 46, (S)-1-{6-[5-(2H-Pyrazol-3-yl)-pyrimidin-2-yloxy]-naphthalen-2-ylmethyl}-pyrrolidin-3-ol] |
| 1.9 | 210 | CC1(O)CN(Cc2ccc3cc(Oc4ncc(-c5ccn[nH]5)cn4)ccc3c2)C1 [Example 47, 3-Methyl-1-{6-[5-(2H-pyrazol-3-yl)-pyrimidin-2-yloxy]-naphthalen-2-ylmethyl}-azetidin-3-ol] |
| 2.9 | 610 | O=C(CO)N1CCN(Cc2ccc3cc(Oc4ncc(-c5ccn[nH]5)cn4)ccc3c2)CC1 [Example 48, 2-Hydroxy-1-(4-{6-[5-(2H-pyrazol-3-yl)-pyrimidin-2-yloxy]-naphthalen-2-ylmethyl}-piperazin-1-yl)-ethanone] |
| 2.2 | 210 | OC1CN(Cc2ccc3cc(Oc4ncc(-c5ccn[nH]5)cn4)ccc3c2)C1 [Example 49, 1-{6-[5-(2H-Pyrazol-3-yl)-pyrimidin-2-yloxy]-naphthalen-2-ylmethyl}-azetidin-3-ol] |

| SMILES | IC50 (human LTA4 hydrolase) [nM] | IC50 [1] [nM] |
| --- | --- | --- |
| N#CCC(=O)N1CC2CCC(C1)N2Cc1ccc2cc(Oc3ccc(-c4ccn[nH]4)cn3)ccc2n1 [Example 50, 3-Oxo-3-(8-{6-[5-(2H-pyrazol-3-yl)-pyridin-2-yloxy]-quinolin-2-ylmethyl}-3,8-diaza-bicyclo[3.2.1]oct-3-yl)-propionitrile] | 0.69 | 170 |
| CC(C)(C#N)C(=O)N1CC2CCC(C1)N2Cc1ccc2cc(Oc3ccc(-c4ccn[nH]4)cn3)ccc2n1 [Example 51, 2,2-Dimethyl-3-oxo-3-(8-{6-[5-(2H-pyrazol-3-yl)-pyridin-2-yloxy]-quinolin-2-ylmethyl}-3,8-diaza-bicyclo[3.2.1]oct-3-yl)-propionitrile] | 0.73 | 210 |
| CO[C@H](C)C(=O)N1CC2CCC(C1)N2Cc1ccc2cc(Oc3ccc(-c4ccn[nH]4)cn3)ccc2n1 [Example 52, (R)-2-Methoxy-1-(8-{6-[5-(2H-pyrazol-3-yl)-pyridin-2-yloxy]-quinolin-2-ylmethyl}-3,8-diaza-bicyclo[3.2.1]oct-3-yl)-propan-1-one] | 0.77 | 150 |
